Assay results from PubChem BioAssay AID248 (DTP/NCI, 2004).
Inconclusive results and toxic doses are left out. Cut-off read from the data, not from the text of the source: active = T/C of 150% or more; inactive = T/C below 125%.

Tested on: L1210 leukemia ip in BDF1 mice, survival T/C
Experiment: NCI In Vivo Anticancer Drug Screen. Data for tumor model L1210 Leukemia (intraperitoneal) in B6D2F1 (BDF1) mice
Conditions: endpoint: mean survival time, higher = longer survival
How it was run: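 In this screen, tumor-bearing mice given compound are compared to those given vehicle, and their survival values are reported as a treated-to-control quotient.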

[1] = dose: 100.0 mg/kg/injection, schedule: Q04DX003 (ip), vehicle: saline with Tween-80
[2] = dose: 200.0 mg/kg/injection, schedule: Q04DX003 (ip), vehicle: saline with Tween-80
[3] = dose: 400.0 mg/kg/injection, schedule: Q04DX003 (ip), vehicle: saline with Tween-80
[4] = dose: 50.0 mg/kg/injection, schedule: Q01DX009 (ip), vehicle: Klucel (hydroxypropylcellulose) (HPC)
[5] = dose: 100.0 mg/kg/injection, schedule: Q01DX009 (ip), vehicle: Klucel (hydroxypropylcellulose) (HPC)
[6] = dose: 100.0 mg/kg/injection, schedule: Q01DX001 (ip), vehicle: saline
[7] = dose: 200.0 mg/kg/injection, schedule: Q01DX001 (ip), vehicle: saline
[8] = dose: 400.0 mg/kg/injection, schedule: Q01DX001 (ip), vehicle: saline
[9] = dose: 100.0 mg/kg/injection, schedule: Q04DX003 (ip), vehicle: Klucel (hydroxypropylcellulose) (HPC)
[10] = dose: 200.0 mg/kg/injection, schedule: Q01DX009 (ip), vehicle: Klucel (hydroxypropylcellulose) (HPC)
[11] = dose: 200.0 mg/kg/injection, schedule: Q04DX003 (ip), vehicle: Klucel (hydroxypropylcellulose) (HPC)
[12] = dose: 400.0 mg/kg/injection, schedule: Q01DX009 (ip), vehicle: Klucel (hydroxypropylcellulose) (HPC)
[13] = dose: 400.0 mg/kg/injection, schedule: Q04DX003 (ip), vehicle: Klucel (hydroxypropylcellulose) (HPC)

Measured: T/C

CCC(C(O)c1cccs1)C(O)(C(F)(F)F)C(F)(F)F (stereo unspecified)
inactive: dose: 100.0 mg/kg/injection, schedule: Q01DX009 (ip), vehicle: saline with Tween-80 95 % of control | [1] 95 % of control | dose: 200.0 mg/kg/injection, schedule: Q01DX009 (ip), vehicle: saline with Tween-80 116 % of control | [2] 95 % of control | dose: 400.0 mg/kg/injection, schedule: Q01DX009 (ip), vehicle: saline with Tween-80 97 % of control | [3] 93 % of control

CCNC(C)(C)C(SSSC(c1ccc(Cl)cc1)C(C)(C)NCC)c1ccc(Cl)cc1 (stereo unspecified)
inactive: [4] 94 % of control | [5] 91 % of control | dose: 100.0 mg/kg/injection, schedule: Q01DX009 (ip), vehicle: other 89 % of control

Cc1ccc(S(=O)(=O)N2CCCC(=O)c3ccccc32)cc1
inactive: dose: 100.0 mg/kg/injection, schedule: Q01DX001 (ip), vehicle: carboxymethylcellulose (CMC) 107 % of control | dose: 200.0 mg/kg/injection, schedule: Q01DX001 (ip), vehicle: carboxymethylcellulose (CMC) 100 % of control | dose: 400.0 mg/kg/injection, schedule: Q01DX001 (ip), vehicle: carboxymethylcellulose (CMC) 102 % of control

COc1cc(C)nc2ccc(Cc3ccc4nc(C)cc(OC)c4c3)cc12
inactive: [6] 94 % of control | [7] 93 % of control | [8] 96 % of control

CC(=O)N1C(CO)C(O)C(O)C1n1cnc2c(N)ncnc21 (stereo unspecified)
inactive: [6] 106 % of control | [7] 96 % of control | [8] 96 % of control

COc1cc(OC)c([N+](=O)[O-])cc1Cl
inactive: [5] 96 % of control | [9] 96 % of control | [10] 96 % of control | [11] 93 % of control | [12] 92 % of control | [13] 94 % of control

COC1OC(COC(c2ccccc2)(c2ccccc2)c2ccccc2)C(OC)C(OC(C)=O)C1OC(C)=O (stereo unspecified)
inactive: dose: 25.0 mg/kg/injection, schedule: Q04DX002 (ip), vehicle: Klucel (hydroxypropylcellulose) (HPC) 95 % of control | dose: 50.0 mg/kg/injection, schedule: Q04DX002 (ip), vehicle: Klucel (hydroxypropylcellulose) (HPC) 95 % of control | dose: 100.0 mg/kg/injection, schedule: Q04DX002 (ip), vehicle: Klucel (hydroxypropylcellulose) (HPC) 92 % of control | dose: 200.0 mg/kg/injection, schedule: Q04DX002 (ip), vehicle: Klucel (hydroxypropylcellulose) (HPC) 102 % of control | dose: 400.0 mg/kg/injection, schedule: Q04DX002 (ip), vehicle: Klucel (hydroxypropylcellulose) (HPC) 90 % of control

CC1(C(=O)c2ccccc2)OC1c1ccccc1 (stereo unspecified)
inactive: [5] 98 % of control | [10] 104 % of control | [12] 103 % of control

NC(=NCc1ccccc1)c1ncn(C2CCCC2)c1N
inactive: dose: 12.5 mg/kg/injection, schedule: Q01DX001 (ip), vehicle: Klucel (hydroxypropylcellulose) (HPC) 103 % of control | dose: 25.0 mg/kg/injection, schedule: Q01DX001 (ip), vehicle: Klucel (hydroxypropylcellulose) (HPC) 102 % of control | dose: 50.0 mg/kg/injection, schedule: Q01DX001 (ip), vehicle: Klucel (hydroxypropylcellulose) (HPC) 96 % of control

O=[N+]([O-])c1ccc(OS(=O)(=O)CS(=O)(=O)Oc2ccc([N+](=O)[O-])cc2)cc1
inactive: [6] 109 % of control | [7] 114 % of control

COc1cccc(NC(=O)NCc2ccco2)c1
inactive: [5] 106 % of control | [10] 108 % of control | [12] 103 % of control

Cc1ccccc1C(O)c1ccccc1Cl (stereo unspecified)
inactive: dose: 100.0 mg/kg/injection, schedule: Q01DX001 (ip), vehicle: saline with Tween-80 109 % of control | dose: 200.0 mg/kg/injection, schedule: Q01DX001 (ip), vehicle: saline with Tween-80 102 % of control | dose: 400.0 mg/kg/injection, schedule: Q01DX001 (ip), vehicle: saline with Tween-80 94 % of control

COc1cc(N(C)C)ccc1C=O
inactive: [4] 93 % of control | [5] 101 % of control | [9] 100 % of control | [10] 105 % of control | [11] 101 % of control | [12] 105 % of control | [13] 97 % of control

Clc1ccc(N2CCN(c3ccc(Cl)cc3)CC2)cc1
inactive: [9] 88 % of control | [11] 101 % of control | [13] 87 % of control

Cc1cc(N(CCCOS(C)(=O)=O)CCCOS(C)(=O)=O)ccc1C=Nc1cccc(Cl)c1
inactive: [1] 97 % of control | [2] 98 % of control | [3] 92 % of control
